System: Y1 mouse adrenal tumor cells
Assay: dbcAMP-induced 20á-hydroxyprogesterone synthesis in Y1 cells (RIA)
Format: cell-based
Protocol: Culture media were then changed and cells were stimulated with 1 mM dbcAMP and the treatment for 24 to 48 hours. […] The synthesis of 20-OH progesterone and progesterone in Y1 and MA-10 cell media respectively were measured by RIA (Brown et al., 1992). H295R human adrenal tumor cells were seeded in 48-well plates at 10^5 cells/well and incubated for 24 hours. […] At the end of the incubation time period, cells were treated with 1 mM dbcAMP for 48 hours. Cortisol levels in the media were determined by radioimmunoassay as previously described (Amri et al., 1996).

## CC1CN(C(=O)C(Cc2c[nH]c3ccccc23)NC(=O)c2ccc([N+](=O)[O-])cc2)CCN1C(=O)C1CC1 (stereo not drawn) [SP010, N-[2-(4-cyclopropanecarbonyl-3-methyl-piperazin-1-yl)-1-(1H-indol-3-yl-methyl)-2-oxo-ethyl]-4-nitro-benzamide]
1, 10 and 100 iM
  efficacy on Y1 adrenocortical cells across concentrations: maintained the same efficacy
Y1 cells, 1 mM dbcAMP, increasing concentrations
  dbcAMP-induced 20á-hydroxyprogesterone production: decreased in a dose-dependent manner
Even at a concentration as low as 1 μM
  potency compared with procaine on cAMP-corticosteroid formation: as potent as procaine

Source: patent US20060194815A1, “Methods and compositions for modulating serum cortisol levels” (priority 2003, published 2006)
